Like-named read-outs stand apart in the source and are kept apart here. Marks after values point to notes of the source that are not given here.
Assays:
[1] = encapsulation technique Nanoparticles, Sprague-Dawley rats, cited from earlier work
[2] = encapsulation technique Polymer, Mice, cited from earlier work
[3] = Daily dosing study 1 (maternal purified diet with no lutein): serum and tissue lutein concentrations; format: in vivo, neonatal Sprague-Dawley rats; conditions: for Lutein concentration, serum: 2 mg/kg daily oral P5-P18, sampled P19
Experimental: Serum and tissue lutein concentration was determined using an ultra-performance liquid chromatography (UPLC) system (Waters, Milford, MA, USA) equipped with a photo-diode array detector (PDA)/MS/MS, according to our well-established methods with slight modification. As for the serum, 100 μL of the sample was incubated with 2 mL of 100% ethanol at room temperature for an hour for lipid extraction. For the tissues, ~0.1 g of the sample was weighed, homogenized, and incubated with 2 mL of 100% ethanol at room temperature for an hour. An amount of 1 mL of 5% (w/v) potassium hydroxide was added to the sample and incubated in a water bath at 60 °C for 45 min for saponification. Upon saponification, samples were allowed to cool for about 15 min, and then an addition of 4 mL of hexane containing 0.1% butylated hydroxytoluene (w/v) and 2 mL of deionized water was added. The mixture was vortexed for 20 s and centrifuged at 1600 rpm at 25 °C for 15 min. The upper layer was collected following centrifugation and dried under nitrogen at 37 °C. The dried sample was then rinsed twice with hexane, dried, and reconstituted with 100 µL of acetonitrile-methanol. The reconstituted sample was centrifuged for 2 min to remove any possible precipitation. For UPLC analysis, 10 µL of the sample was injected into the Waters Acquity UPLC HSS T3 column. Solvent A was acetonitrile: methanol (50:50, v/v), and solvent B was 100% isopropanol. The mobile phase was made up of solvent A and solvent B in a volume ratio of 95:5 (v/v). The flow rate was set as 0.5 mL/min, and the column temperature was maintained at 35 °C. The detection wavelength was set at 446 nm. Retinyl acetate (Sigma-Aldrich, St. Louis, MO, USA) was used as the internal standard. To determine the effects of daily consumption of CTA-stabilized lutein emulsion on tissue lutein status, two daily dosing studies were conducted. The procedures were approved by the Institutional Animal Care and Use Committee of the University of Alabama (Number: 21-02-4373, 4 February 2021). For daily dosing study 1 (Figure 1B), on P5, rat pups (n = 8–9/group) were randomly selected from the litters and received an oral dose of either free lutein (i.e., lutein ester dissolved in olive oil) or lutein emulsion both containing 2 mg/kg body weight of lutein. […] Dosing was repeated daily until P18. The dosage was determined from previous research in both rodent and human newborns and was also established as an Acceptable Daily Intake for lutein by the Joint Food and Agricultural Organization/World Health Organization. On P19, pups were euthanized. Rats are known to wean between P19 and P21 [47]. Blood from vena cava, liver, spleen, brain, eye, kidney, lung, white adipose tissue (WAT), and brown adipose tissue (BAT) were collected. Blood samples were centrifuged to obtain serum. Serum and collected tissues were frozen at −80 °C until analysis. Serum and tissue lutein concentrations were analyzed using the methods described in Section 2.3.2.

[4] = Daily dosing study 2 (maternal standard chow diet containing lutein): serum and tissue lutein concentrations; format: in vivo, neonatal Sprague-Dawley rats; conditions: 2 mg/kg daily oral P5-P18
Experimental: Serum and tissue lutein concentration was determined using an ultra-performance liquid chromatography (UPLC) system (Waters, Milford, MA, USA) equipped with a photo-diode array detector (PDA)/MS/MS, according to our well-established methods with slight modification. As for the serum, 100 μL of the sample was incubated with 2 mL of 100% ethanol at room temperature for an hour for lipid extraction. For the tissues, ~0.1 g of the sample was weighed, homogenized, and incubated with 2 mL of 100% ethanol at room temperature for an hour. An amount of 1 mL of 5% (w/v) potassium hydroxide was added to the sample and incubated in a water bath at 60 °C for 45 min for saponification. Upon saponification, samples were allowed to cool for about 15 min, and then an addition of 4 mL of hexane containing 0.1% butylated hydroxytoluene (w/v) and 2 mL of deionized water was added. The mixture was vortexed for 20 s and centrifuged at 1600 rpm at 25 °C for 15 min. The upper layer was collected following centrifugation and dried under nitrogen at 37 °C. The dried sample was then rinsed twice with hexane, dried, and reconstituted with 100 µL of acetonitrile-methanol. The reconstituted sample was centrifuged for 2 min to remove any possible precipitation. For UPLC analysis, 10 µL of the sample was injected into the Waters Acquity UPLC HSS T3 column. Solvent A was acetonitrile: methanol (50:50, v/v), and solvent B was 100% isopropanol. The mobile phase was made up of solvent A and solvent B in a volume ratio of 95:5 (v/v). The flow rate was set as 0.5 mL/min, and the column temperature was maintained at 35 °C. The detection wavelength was set at 446 nm. Retinyl acetate (Sigma-Aldrich, St. Louis, MO, USA) was used as the internal standard. To mimic the human dietary intake of lutein, daily dosing study 2 was conducted (Figure 1C). In this study, maternal rats consumed a standard rodent chow diet containing lutein from ingredients (i.e., ground corn) during pregnancy and lactation (Figure S2). The study design was similar to that of daily dosing study 1, except that a negative control group, in which rat pups were given olive oil from P5 to P18, was included in this study. Serum and tissue lutein concentrations were analyzed using the methods described in Section 2.3.2.

[5] = 2 mg/kg daily oral P5-P18, maternal purified diet with no lutein
[6] = 2 mg/kg daily oral P5-P18, maternal purified diet with no lutein, listed as free lutein
[7] = daily dosing study 1 vs study 2
[8] = maternal standard chow diet containing lutein
[9] = maternal standard chow diet containing lutein, listed as free lutein

- Lutein concentration, serum ([3]; maternal purified diet with no lutein): 112.42 ± 34.60 ^a nmol/L
- Lutein concentration, serum ([3]; maternal purified diet with no lutein, listed as free lutein): 112.42 ± 34.60 nmol/L
- Lutein concentration, BAT [3, 5]: 0.02 ± 0.002 ^a nmol/g
- Lutein concentration, WAT [3, 5]: 0.08 ± 0.04 ^a nmol/g
- Lutein concentration, brain [3, 5]: 0.04 ± 0.01 ^b nmol/g
- Lutein concentration, eye [3, 5]: 0.04 ± 0.01 ^a nmol/g
- Lutein concentration, kidney [3, 5]: 0.12± 0.04 ^b nmol/g
- Lutein concentration, liver [3, 5]: 2.52 ± 1.29 ^b nmol/g
- Lutein concentration, lung [3, 5]: 0.06 ± 0.01 ^a nmol/g
- Lutein concentration, spleen [3, 5]: 0.66 ± 0.18 ^a nmol/g
- Lutein concentration, BAT [3, 6]: 0.02 ± 0.002 nmol/g
- Lutein concentration, brain [3, 6]: 0.04 ± 0.01 nmol/g
- Lutein concentration, eye [3, 6]: 0.02 ± 0.007 nmol/g
- Lutein concentration, kidney [3, 6]: 0.12 ± 0.04 nmol/g
- Lutein concentration, liver [3, 6]: 2.52 ± 1.29 nmol/g
- Lutein concentration, lung [3, 6]: 0.06 ± 0.01 nmol/g
- Lutein concentration, spleen [3, 6]: 0.66 ± 0.18 nmol/g
- Fold higher eye lutein concentration, no-lutein maternal diet vs diet containing lutein [3, 7]: 2.00 fold
- Fold higher liver lutein concentration, no-lutein maternal diet vs diet containing lutein [3, 7]: 2.04 fold
- Fold higher serum lutein concentration, no-lutein maternal diet vs diet containing lutein [3, 7]: 6.38 fold
- Lutein concentration, BAT [4, 8]: 0.026 ± 0.014 ^a nmol/g
- Lutein concentration, WAT [4, 8]: 0.34 ± 0.23 ^a nmol/g
- Lutein concentration, brain [4, 8]: 0.06 ± 0.04 ^ab nmol/g
- Lutein concentration, eye [4, 8]: 0.01 ± 0.003 ^c nmol/g
- Lutein concentration, kidney [4, 8]: 0.12 ± 0.03 ^b nmol/g
- Lutein concentration, liver [4, 8]: 1.23 ± 0.38 ^bc nmol/g
- Lutein concentration, lung [4, 8]: 0.043 ± 0.007 ^a nmol/g
- Lutein concentration, serum [4, 8]: 17.6 ± 4.39 nM
- Lutein concentration, spleen [4, 8]: 0.58 ± 0.29 ^b nmol/g
- Lutein concentration, serum ([4]; maternal standard chow diet containing lutein (Table 4)): 17.61 ± 4.39 ^b nmol/L
- Lutein concentration, BAT [4, 9]: 0.026 ± 0.014 nmol/g
- Lutein concentration, WAT [4, 9]: 0.34 ± 0.23 nmol/g
- Lutein concentration, brain [4, 9]: 0.06 ± 0.04 nmol/g
- Lutein concentration, eye [4, 9]: 0.01 ± 0.003 nmol/g
- Lutein concentration, kidney [4, 9]: 0.12 ± 0.03 nmol/g
- Lutein concentration, liver [4, 9]: 1.23 ± 0.38 nmol/g
- Lutein concentration, lung [4, 9]: 0.043 ± 0.007 nmol/g
Substance: Lutein ester [Free Lutein]
- Tmax (serum) ([1]; ref Chang et al. (2018) [59]): 3 h
- Tmax (serum) ([1]; ref Liu et al. (2017) [37]): 2 h
- Tmax (serum) ([1]; ref Wu et al. (2019) [54]): 2 h
- Tmax (serum) ([1]; ref Zhang et al. (2015) [58]): 6 ± 2.2 h
- Tmax (serum) ([2]; ref Arunkumar et al. (2015) [42]): 4 h
- Tmax (serum) ([2]; ref Ranganathan et al. (2019) [57]): 4 h

Source: publication PMC10857328, “Utilization of Biopolymer-Based Lutein Emulsion as an Effective Delivery System to Improve Lutein Bioavailability in Neonatal Rats” (Nutrients, 2024)
